Experimental data from patent US9833436B2, “Method of preparing drug agglomerate” (PharmaDax Inc., priority 2014, dated 2017).
Where a name gives a salt, the structure may show the parent alone. Read-outs that look alike come from different tables or passages of the source.

Key:
[1] = Compatibility with HPMCP HP-50 by residual content (% assay) after storage; assay type: physicochemical
Experimental: In comparison, duloxetine crude materials and granulated duloxetine particles having similar size obtained by the conventional wet granulation were also assayed. The granulated duloxetine particles were granulated by the same second solvent (e.g., acetonitrile), which was used in the process of spherical agglomeration, and dried at 50° C. until LOD<1%. An enteric material, hypromellose phthalate (HPMCP) HP-50, which is known to cause degradation of duloxetine, was used in this test.
FIGS. 4A-D are electronic microscopic diagram of duloxetine in different states. […] In Table 7, “C” refers to crude material. “SA” refers to spherical agglomerates. “G” refers to granulated duloxetine particles.

[2] = pH 6.8 PBS 500 mL, basket 100 rpm, 37° C.

Question: For `CNCC[C@H](Oc1cccc2ccccc12)c1cccs1` [Crude, duloxetine hydrochloride], which “% Assay (residual content)” value [1] is on record?
Answer: The value was 98.39%.

Question: What about the “Duloxetine Release (%)” value ([2]; 3 min) of the same molecule?
Answer: The value was 89.3%.

Question: And the “Duloxetine Release (%)” value ([2]; 6 min)?
Answer: The value was 95.8%.

Question: And the “Duloxetine Release (%)” value ([2]; 9 min)?
Answer: Its value is 97.5%.

Question: And the “Duloxetine Release (%)” value ([2]; 12 min)?
Answer: Its value is 98.4%.

Question: What about the “Duloxetine Release (%)” value ([2]; 15 min) of the same molecule?
Answer: The value was 98.8%.

Question: What about the “Duloxetine Release (%)” value ([2]; 18 min) of the same molecule?
Answer: The value was 99.1%.

Question: What about the “Duloxetine Release (%)” value ([2]; 21 min) of the same molecule?
Answer: Its value is 99.4%.

Question: And the “Duloxetine Release (%)” value ([2]; 30 min)?
Answer: Its value is 99.9%.

Question: What about the “Duloxetine Release (%)” value ([2]; 60 min) of the same molecule?
Answer: Its value is 100.9%.
